In patent publication US20090028830A1, “Preparation of multipotent stem cells and the use thereof” (priority 2005, published 2009):

Target: T1, PKCβ2 (Homo sapiens, UniProt P05771)
T1 construct: mononucleated cells constitutively expressed PKC isoforms α, β1, β2, γ, l/λ and ζ; endogenous in cells; host or cells: mononucleated cells (monocytes)
Assay: PKC isoform activation/translocation in mononucleated cells during P-stem cell differentiation
Type: cell-based
Settings: mononucleated cells pre-treated with Go6976 (1 μM) 30 minutes at 37° C., then Bryostatin-1 (10 nM) at designated time intervals; combined treatment; FIG. 4
Protocol: The constitutively expressed PKC isoforms in mononucleated cells are detected by Western Blot analysis with each PKC isoform-specific antibodies. […] In the FIG. 1, Mo and pc represents mononucleated cell and PKC positive cell lysate, respectively. To examine the specific activation of PKC isoform(s) iii the differentiation of P-stem cells, mononucleated cells are pre-treated with Go6976 (1 μM) for 30 minutes at 37° C. and then incubated with Brvostatin-1 (10 nM) at designated time intervals. […] Therefore, any substances stimulating the activation of PKCβ2 are capable of inducing the differentiation of P-stem cells.

T1 sequence (P05771 1-673 isoform P05771-2): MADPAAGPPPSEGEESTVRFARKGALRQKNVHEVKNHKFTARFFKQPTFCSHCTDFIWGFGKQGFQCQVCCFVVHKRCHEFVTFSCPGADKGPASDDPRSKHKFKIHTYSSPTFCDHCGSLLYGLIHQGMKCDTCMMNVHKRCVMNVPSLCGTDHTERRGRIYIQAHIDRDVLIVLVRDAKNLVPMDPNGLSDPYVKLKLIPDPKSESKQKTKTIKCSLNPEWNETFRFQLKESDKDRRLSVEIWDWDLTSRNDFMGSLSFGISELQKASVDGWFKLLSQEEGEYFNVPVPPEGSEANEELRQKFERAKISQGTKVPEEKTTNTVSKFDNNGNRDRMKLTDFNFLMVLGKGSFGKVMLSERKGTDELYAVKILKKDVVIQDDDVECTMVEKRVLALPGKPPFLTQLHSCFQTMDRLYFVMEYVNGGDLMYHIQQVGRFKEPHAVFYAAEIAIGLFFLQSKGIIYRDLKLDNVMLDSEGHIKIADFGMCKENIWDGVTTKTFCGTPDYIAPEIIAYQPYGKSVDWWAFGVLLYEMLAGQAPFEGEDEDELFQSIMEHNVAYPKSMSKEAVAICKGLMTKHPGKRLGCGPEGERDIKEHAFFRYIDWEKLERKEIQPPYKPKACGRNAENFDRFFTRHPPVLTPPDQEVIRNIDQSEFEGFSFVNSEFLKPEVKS

## CCC/C=C/C=C/C(=O)O[C@H]1/C(=C/C(=O)OC)C[C@H]2C[C@H]([C@@H](C)O)OC(=O)C[C@H](O)C[C@@H]3C[C@H](OC(C)=O)C(C)(C)[C@](O)(C[C@@H]4C/C(=C/C(=O)OC)C[C@H](/C=C/C(C)(C)[C@]1(O)O2)O4)O3 [Brvostatin-1, Bryostatin-1]
  specific activation of PKC isoform(s) (translocation from cytosol to plasma membrane): only PKCβ2 is activated and translocates from cytosol to plasma membrane

## Cn1c2ccccc2c2c3c(c4c5ccccc5n(CCC#N)c4c21)CNC3=O [Go6976]
  specific activation of PKC isoform(s) (translocation from cytosol to plasma membrane): only PKCβ2 is activated and translocates from cytosol to plasma membrane
